Promoting rate and IC50 data for 8 substances are collected here from US6613897B1, “Compounds having glucuronic acid derivatives and glucosamine derivative in the structure, process for producing the same and utilization thereof” (Maruha Corporation, priority 1998, dated 2003).

Read-outs that look alike come from different tables or passages of the source.

Assay [1] relates to bovine aortic vascular endothelial cells. Description: Vascular endothelial cell growth promoting action (BrdU uptake). It counts as cell-based. Conditions: 20 hours. The protocol:
This test used bovine aortic vascular endothelial cells (passage number 3) as cells, and MEM containing 10% FCS (fetal calf serum), 100 units/mL penicillin G, and 100 μg/mL streptomycin as a culture medium. […] Culture was performed for 20 hours at 37° C. and 5% CO2, and then the effect of the compounds on vascular endothelial cell growth was measured using “Cell Growth ELISA, BrdU Color Development Kit” (Boehringer Mannheim) (uptake of 5-bromodeoxyuridine (BrdU) was adopted as an indicator).

Assay [2] shares this test system.
Procedure: A test was conducted to investigate the interaction of the compounds of the invention with vascular endothelial growth factor (VEGF). As the VEGF, human recombinant VEGF was used (Vascular Endothelial Growth Factor, Human, Recombinant, For Biochemical Use: a product of Wako Pure Chemical Industries).
The test was conducted in the same manner as in Example 12, but VEGF (final concentration 10 ng/mL) was added simultaneously with the addition of the compound. As comparative tests, a VEGF single addition test (a test in which only VEGF was added) and a negative control test (a test in which neither the compound nor VEGF was added) were performed. The effect on vascular endothelial cell growth was measured in the same way as in Example 12.
The vascular endothelial cell growth promoting action of each of the compounds was evaluated from the following equation:
Promoting rate (%)={(Increase in the BrdU uptake in the compound addition test)/(Increase in the BrdU uptake in the negative control test)}×100
Assay [3] concerns rabbit platelet rich plasma. The following applies: read-out: 50% Inhibitory Concentration; collagen-induced platelet aggregation, rabbit PRP. The protocol: Blood was taken from the rabbit aorta in an amount of 9 volumes of the blood per volume of a 3.8% aqueous solution of sodium citrate. The blood sample was immediately centrifuged (50×g, 10 min, room temperature) to obtain platelet rich plasma (PRP) as a supernatant. […] The mixture was held for 1 minute at 37° C., and then 10 μL of 10 μg/mL collagen (bovine tendon collagen: a product of Meiji Yakuhin) was added as an aggregation inducer. An aggregation curve was recorded for 7 minutes after addition.

[4] abbreviates: compound concentration 0.1 μg/mL.
The mark [5] stands for this setting: compound concentration 0.5 μg/mL.
Setting [6] is: compound concentration 10 μg/mL.
[7] abbreviates: compound concentration 0.1 μg/mL + VEGF 10 ng/mL.
Setting [8] is: compound concentration 0.5 μg/mL + VEGF 10 ng/mL.
[9] abbreviates: compound concentration 1 μg/mL + VEGF 10 ng/mL.
Where [10] appears, read: compound concentration 5 μg/mL + VEGF 10 ng/mL.
Setting [11] is: compound concentration 10 μg/mL + VEGF 10 ng/mL.

For the substance “4-deoxy-α-L-threo-hexa-4-enepyranuronosyl-(1→3)-O-2-acetamide-2-deoxy-β-D-glucopyranosyl-(1→4)-3-O-β-D-glucopyranuronic acid [Compound Example 7]”, the Promoting rate in assay [1] (setting [4]) is given as 104.8%; in assay [1] (setting [5]), 139.7%; in assay [1] (compound concentration 1 μg/mL), 172.6%; in assay [1] (compound concentration 5 μg/mL) it was 170.0%; in assay [1] (setting [6]), 129.7%; in assay [2] (setting [7]), 165.0%. The Promoting rate in assay [2] (setting [8]) is 206.2%; in assay [2] (setting [9]) it was 235.9%; in assay [2] (setting [10]) it was 228.7%; in assay [2] (setting [11]), 191.3%.
For “4-deoxy-α-L-threo-hexa-4-enepyranuronosyl-(1→3)-O-2-acetamide-2-deoxy-β-D-glucopyranosyl-(1→4)-3-O-β-D-glucopyranuronitol [Compound Example 9]”, the Promoting rate is listed as 102.8% in assay [1] (setting [4]); 139.5% in assay [1] (setting [5]); 180.3% in assay [1] (compound concentration 1 μg/mL); 179.3% in assay [1] (compound concentration 5 μg/mL); 133.4% in assay [1] (setting [6]); 159.8% in assay [2] (setting [7]). The Promoting rate in assay [2] (setting [8]) stood at 200.2%; in assay [2] (setting [9]), 245.6%; in assay [2] (setting [10]), 244.2%; in assay [2] (setting [11]), 196.8%.
Regarding “4-deoxy-α-L-threo-hexa-4-enepyranuronosyl-(1→3)-O-2-acetamide-2-deoxy-β-D-glucopyranosyl-(1→4)-3-O-β-D-glucopyranuronosyl-(1→3)-O-2-acetamide-2-deoxy-β-D-glucopyranitol [Compound Example 5]”, the Promoting rate in assay [1] (setting [4]) is 101.1%; in assay [1] (setting [5]) it was 144.2%; in assay [1] (compound concentration 1 μg/mL), 182.7%; in assay [1] (compound concentration 5 μg/mL), 169.9%; in assay [1] (setting [6]) it was 141.1%; in assay [2] (setting [7]), 160.9%. Further, the Promoting rate is reported as 205.0% in assay [2] (setting [8]), 243.8% in assay [2] (setting [9]), 231.1% in assay [2] (setting [10]) and 200.4% in assay [2] (setting [11]).
Take “4-deoxy-α-L-threo-hexa-4-enepyranuronosyl-(1→3)-O-2-acetamide-2-deoxy-β-D-glucopyranosyl-(1→4)-3-O-β-D-glucopyranuronosyl-(1→3)-O-2-acetamide-2-deoxy-β-D-glucopyranose [Compound Example 1]”: the IC50 in assay [3] came to 2700 nM.
In the case of “4-deoxy-α-L-threo-hexa-4-enepyranuronosyl-(1→3)-O-2-acetamide-2-deoxy-β-D-glucopyranosyl-(1→4)-3-O-β-D-glucopyranuronosyl-(1→3)-O-2-acetamide-2-deoxy-β-D-glucopyranosyl-(1→4)-3-O-β-D-glucopyranuronic acid [Compound Example 8]”, the IC50 in assay [3] was found to be 3.8 nM. Besides, the Promoting rate turned out to be 103.3% in assay [1] (setting [4]); 140.9% in assay [1] (setting [5]); 181.1% in assay [1] (compound concentration 1 μg/mL); 168.7% in assay [1] (compound concentration 5 μg/mL); 141.3% in assay [1] (setting [6]); 168.7% in assay [2] (setting [7]). The Promoting rate is given as 202.9% in assay [2] (setting [8]), 251.2% in assay [2] (setting [9]), 224.9% in assay [2] (setting [10]) and 199.2% in assay [2] (setting [11]).
Turning to “4-deoxy-α-L-threo-hexa-4-enepyranuronosyl-(1→3)-O-2-acetamide-2-deoxy-β-D-glucopyranosyl-(1→4)-3-O-β-D-glucopyranuronosyl-(1→3)-O-2-acetamide-2-deoxy-β-D-glucopyranosyl-(1→4)-3-O-β-D-glucopyranuronosyl-(1→3)-O-2-acetamide-2-deoxy-β-D-glucopyranitol [Compound Example 6]”, in assay [3], the IC50 came out at 2.7 nM. Further, the Promoting rate in assay [1] (setting [4]) was determined as 100.5%; in assay [1] (setting [5]), 143.8%; in assay [1] (compound concentration 1 μg/mL), 167.9%; in assay [1] (compound concentration 5 μg/mL), 168.8%; in assay [1] (setting [6]), 142.2%; in assay [2] (setting [7]), 159.8%. Also, the Promoting rate in assay [2] (setting [8]) was 205.2%; in assay [2] (setting [9]), 232.2%; in assay [2] (setting [10]), 224.8%; in assay [2] (setting [11]) it was 205.7%.
On to “4-deoxy-α-L-threo-hexa-4-enepyranuronosyl-(1→3)-O-2-acetamide-2-deoxy-β-D-glucopyranosyl-(1→4)-3-O-β-D-glucopyranuronosyl-(1→3)-O-2-acetamide-2-deoxy-β-D-glucopyranosyl-(1→4)-3-O-β-D-glucopyranuronosyl-(1→3)-O-2-acetamide-2-deoxy-β-D-glucopyranose [Compound Example 2]”, for which the IC50 in assay [3] came to 3.2 nM.
For VEGF, the Promoting rate in assay [2] (VEGF added alone, 10 ng/mL (compound concentration 0)) amounted to 148.5%.
